In patent US11358944B2, “Anxiolytic deuterated compound and medical use thereof” (BEIJING JUNKE HUAYUAN MED TECH CO., LTD., priority 2017, dated 2022):

Columns and labels:
Wistar rats = experiment: elevated plus-maze test on rats (anxiolytic effect); format: in vivo, rat; conditions: 30 min after administration, within 5 minutes
Experimental: The anxiolytic effect of the compounds was evaluated using an elevated plus-maze test on rats.
The elevated plus-maze consists of two closed arms and two open arms cross each other with length, width and height respectively of 50 cm, 10 cm and 40 cm.
The central connecting area is 10 cm (length)×10 cm (width), and the maze is 50 cm above the ground, placed in the darker side of the fluorescent lamp and 1 meter away from the lamp. Wistar rats were randomly divided into groups with 5 per group, and the rats were fasted but not deprived of water for 12 hours; The test compound was formulated with 0.5% sodium carboxymethylcellulose into a suspension of certain concentration for intragastric administration. Thirty minutes after administration, the rats were placed in the central connecting area of the maze with the heads facing the direction of the open arms. Then the dwell time of the animals in the open arms within 5 minutes was recorded.

[1] = subacute toxicity, 7-day intragastric administration: blood biochemical and hematological indicators; format: in vivo, rat; conditions: 60 mg/kg intragastric once a day for 7 days; for plasma ALT compared with control group (Solvent group) / plasma AST compared with control group (Solvent group): SD rats, result in words; for ALT / AST: male Sprague-Dawley rats
Experimental: (§1) Male Sprague-Dawley rats (220-240 g), were randomly divided into groups with 5 per group; The test compound was formulated with 0.5% sodium carboxymethylcellulose into a preparation of a concentration of 60 mg/kg for intragastric administration once a day and continuously for 7 days. After the last administration, the SD rats were fasted but not deprived of water for 12 hours, and anesthetized. Their blood samples were obtained from the abdominal aortas and made to serum samples for determination of blood biochemical indicators and immunological indicators; EDTA Anticoagulated blood was prepared for general blood routine determination. Referring to the method of the literature (En Li, et al. Effect of buagafuran on liver microsomal cytochrome P450 in rats. J Asian Natural Products Research. 2010; 12: 371-381.), liver microsome was prepared from the liver taken, and the activity of CYP isoenzyme was determined using a probe substrate. The relative enzymatic activity of the test compound was calculated by taking the activity of the solvent group as 1.

CYP2E1 [2] = experiment: induction of liver metabolic enzyme, liver microsome probe substrate activity after 7-day administration; format: in vivo, rat; conditions: 60 mg/kg intragastric once a day for 7 days; for Relative enzyme activity CYP2E1: rat liver microsome, solvent group = 1; for activity of metabolic enzyme CYP2E1 in the liver compared with solvent group: result in words
Experimental: as §1

CYP1A1 = experiment: as above; format: in vivo, rat; conditions: 60 mg/kg intragastric once a day for 7 days; for Relative enzyme activity CYP1A1: rat liver microsome, solvent group = 1; for activity of metabolic enzyme CYP1A1 in the liver compared with solvent group: result in words
Experimental: as §1

CYP2E1 [3] = conditions: literature, rats; cited from earlier work
CYP1A2 = conditions: literature, rats; cited from earlier work
[4] = background statement; cited from earlier work
[5] = background statement; cited from earlier work; remark: listed apart in the source

[2H]C1([2H])C=C(CCCC)[C@@]23C[C@@H](CC[C@]2(C)C1)C(C)(C)O3 [I-1, d2-BAF]
dwell time in the open arms (Wistar rats; 1 mg/kg intragastric): 48.6 ± 21.7 s | dwell time in the open arms (Wistar rats; 2 mg/kg intragastric): 68.4 ± 30.8 s | dwell time in the open arms (Wistar rats; 4 mg/kg intragastric): 47.5 ± 23.6 s | plasma ALT compared with control group (Solvent group) [1]: no significant differences | plasma AST compared with control group (Solvent group) [1]: no significant differences | ALT [1]: 116.1 U/L | AST [1]: 163.9 U/L | Relative enzyme activity CYP2E1 (CYP2E1 [2]): 1.2 | activity of metabolic enzyme CYP2E1 in the liver compared with solvent group (CYP2E1 [2]): not significantly different | Relative enzyme activity CYP1A1 (CYP1A1): 1.7 | activity of metabolic enzyme CYP1A1 in the liver compared with solvent group (CYP1A1): not significantly different

[2H]C1=C(C([2H])([2H])C([2H])([2H])C([2H])([2H])C([2H])([2H])[2H])[C@@]23C[C@@H](CC[C@]2(C)CC1([2H])[2H])C(C)(C)O3 [I-8, d12-BAF]
dwell time in the open arms (Wistar rats; 1 mg/kg intragastric): 70.7 ± 23.2 s | dwell time in the open arms (Wistar rats; 2 mg/kg intragastric): 76.9 ± 14.4 s | dwell time in the open arms (Wistar rats; 4 mg/kg intragastric): 72.3 ± 17.8 s

[2H]C1([2H])C=C(CCCC)[C@]23OC(C)(C)[C@H](CC[C@]2(C)C1)C3([2H])[2H] [I-3, d4-BAF]
dwell time in the open arms (Wistar rats; 1 mg/kg intragastric): 52.5 ± 26.0 s | dwell time in the open arms (Wistar rats; 2 mg/kg intragastric): 67.2 ± 22.0 s | dwell time in the open arms (Wistar rats; 4 mg/kg intragastric): 42.7 ± 25.1 s

[2H]C([2H])([2H])C([2H])([2H])C([2H])([2H])C([2H])([2H])C1=CCC[C@@]2(C)CC[C@@H]3C[C@]12OC3(C)C [I-5, d9-BAF]
dwell time in the open arms (Wistar rats; 1 mg/kg intragastric): 72.0 ± 15.8 s | dwell time in the open arms (Wistar rats; 2 mg/kg intragastric): 71.2 ± 15.3 s | dwell time in the open arms (Wistar rats; 4 mg/kg intragastric): 76.5 ± 16.0 s | plasma ALT compared with control group (Solvent group) [1]: no significant differences | plasma AST compared with control group (Solvent group) [1]: no significant differences | ALT [1]: 56.6 U/L | AST [1]: 137.2 U/L | Relative enzyme activity CYP2E1 (CYP2E1 [2]): 1.2 | activity of metabolic enzyme CYP2E1 in the liver compared with solvent group (CYP2E1 [2]): not significantly different | Relative enzyme activity CYP1A1 (CYP1A1): 1.3 | activity of metabolic enzyme CYP1A1 in the liver compared with solvent group (CYP1A1): not significantly different

[2H]C1=C(C([2H])([2H])C([2H])([2H])C([2H])([2H])C([2H])([2H])[2H])[C@@]23C[C@@H](CC[C@]2(C)CC1)C(C)(C)O3 [I-6, d10-BAF]
dwell time in the open arms (Wistar rats; 1 mg/kg intragastric): 73.3 ± 17.6 s | dwell time in the open arms (Wistar rats; 2 mg/kg intragastric): 71.4 ± 19.1 s | dwell time in the open arms (Wistar rats; 4 mg/kg intragastric): 66.3 ± 19.6 s

[2H]C1=C(CCCC)[C@@]23C[C@@H](CC[C@]2(C)CC1([2H])[2H])C(C)(C)O3 [I-2, d3-BAF]
dwell time in the open arms (Wistar rats; 1 mg/kg intragastric): 45.6 ± 19.1 s | dwell time in the open arms (Wistar rats; 2 mg/kg intragastric): 69.7 ± 29.8 s | dwell time in the open arms (Wistar rats; 4 mg/kg intragastric): 39.0 ± 25.7 s | plasma ALT compared with control group (Solvent group) [1]: no significant differences | plasma AST compared with control group (Solvent group) [1]: no significant differences | ALT [1]: 74.0 U/L | AST [1]: 115.4 U/L | Relative enzyme activity CYP2E1 (CYP2E1 [2]): 1.0 | activity of metabolic enzyme CYP2E1 in the liver compared with solvent group (CYP2E1 [2]): not significantly different | Relative enzyme activity CYP1A1 (CYP1A1): 1.4 | activity of metabolic enzyme CYP1A1 in the liver compared with solvent group (CYP1A1): not significantly different

[2H]C1([2H])C=C(C([2H])([2H])C([2H])([2H])C([2H])([2H])C([2H])([2H])[2H])[C@@]23C[C@@H](CC[C@]2(C)C1)C(C)(C)O3 [I-7, d11-BAF]
dwell time in the open arms (Wistar rats; 1 mg/kg intragastric): 77.5 ± 23.3 s | dwell time in the open arms (Wistar rats; 2 mg/kg intragastric): 72.6 ± 18.6 s | dwell time in the open arms (Wistar rats; 4 mg/kg intragastric): 73.8 ± 11.0 s | plasma ALT compared with control group (Solvent group) [1]: no significant differences | plasma AST compared with control group (Solvent group) [1]: no significant differences | ALT [1]: 48.7 U/L | AST [1]: 107.7 U/L | Relative enzyme activity CYP2E1 (CYP2E1 [2]): 0.9 | activity of metabolic enzyme CYP2E1 in the liver compared with solvent group (CYP2E1 [2]): not significantly different | Relative enzyme activity CYP1A1 (CYP1A1): 1.1 | activity of metabolic enzyme CYP1A1 in the liver compared with solvent group (CYP1A1): not significantly different

CCCCC1=CCC[C@@]2(C)CC[C@@H]3C[C@]12OC3(C)C [BAF, 4-butyl-α-agarofuran, reference compound]
induction effect on liver cytochrome P450 metabolic enzyme CYP2E1 (CYP2E1 [3]): significant induction effect | dwell time in the open arms (Wistar rats; 1 mg/kg intragastric): 26.7 ± 27.0 s | dwell time in the open arms (Wistar rats; 2 mg/kg intragastric): 45.2 ± 39.7 s | dwell time in the open arms (Wistar rats; 4 mg/kg intragastric): 69.0 ± 49.0 s | plasma ALT compared with control group (Solvent group) [1]: significantly increased | plasma AST compared with control group (Solvent group) [1]: significantly increased | ALT [1]: 189.0 U/L | AST [1]: 258.7 U/L | Relative enzyme activity CYP2E1 (CYP2E1 [2]): 1.7 | activity of metabolic enzyme CYP2E1 in the liver compared with solvent group (CYP2E1 [2]): significantly increased | Relative enzyme activity CYP1A1 (CYP1A1): 3.8 | activity of metabolic enzyme CYP1A1 in the liver compared with solvent group (CYP1A1): significantly increased | induction effect on liver cytochrome P450 metabolic enzyme CYP1A2 (CYP1A2): significant induction effect | oral bioavailability [4]: low | anxiolytic activity [5]: significant anxiolytic activity
